Patent publication US20130171098A1, “Cyclopropyl Fused Indolobenzazepine HCV NS5B Inhibitors” (priority 2006, published 2013)
Where two headings read alike, the source gives them in different places.

How the values were obtained:
[1] = biological target: T1, HCV NS5B RdRp genotype 1b (Hepatitis C virus genotype 1b, UniProt Q9WMX2); assay: HCV NS5B RdRp enzyme assay (standard / modified); type: biochemical
T1 construct: The protein was expressed with an 18 amino acid C-terminal truncation to enhance the solubility; made in house; host or cells: E. coli BL21(DE3), pET21a vector
Protocol: HCV NS5B RdRp Cloning, Expression, and Purification.
The cDNA encoding the NS5B protein of HCV, genotype 1b, was cloned into the pET21a expression vector. The protein was expressed with an 18 amino acid C-terminal truncation to enhance the solubility. The E. coli competent cell line BL21(DE3) was used for expression of the protein. Cultures were grown at 37° C. for ˜4 hours until the cultures reached an optical density of 2.0 at 600 nm. The cultures were cooled to 20° C. and induced with 1 mM IPTG. Fresh ampicillin was added to a final concentration of 50 μg/ml and the cells were grown overnight at 20° C.
The lysis buffer consisted of 20 mM Tris-HCl, pH 7.4, 500 mM NaCl, 0.5% triton X-100, 1 mM DTT, 1 mM EDTA, 20% glycerol, 0.5 mg/ml lysozyme, 10 mM MgCl2, 15 ug/ml deoxyribonuclease I, and Complete TM protease inhibitor tablets (Roche). After addition of the lysis buffer, frozen cell pellets were resuspended using a tissue homogenizer. To reduce the viscosity of the sample, aliquots of the lysate were sonicated on ice using a microtip attached to a Branson sonicator. The sonicated lysate was centrifuged at 100,000×g for 1 hr at 4° C. and filtered through a 0.2 μm filter unit (Corning).
The protein was purified using two sequential chromatography steps: Heparin sepharose CL-6B and polyU sepharose 4B (Pharmacia). The chromatography buffers were identical to the lysis buffer but contained no lysozyme, deoxyribonuclease I, MgCl2 or protease inhibitor and the NaCl concentration of the buffer was adjusted according to the requirements for charging the protein onto the column. Each column was eluted with a NaCl gradient which varied in length from 5-50 column volumes depending on the column type. […] The enzyme was aliquoted and stored at −80° C.
Standard HCV NS5B RdRp Enzyme Assay.
HCV RdRp genotype 1b assays were run in a final volume of 60 μl in 96 well plates (Corning 3600). The assay buffer is composed of 20 mM Hepes, pH 7.5, 2.5 mM KCl, 2.5 mM MgCl2, 1 mM DTT, 1.6 U RNAse inhibitor (Promega N2515), 0.01 mg/ml BSA (Sigma B6917), and 2% glycerol. All compounds were serially diluted (3-fold) in DMSO and diluted further in water such that the final concentration of DMSO in the assay was 2%. HCV RdRp genotype 1b enzyme was used at a final concentration of 28 nM. A polyA template was used at 6 nM, and a biotinylated oligo-dT12 primer was used at 180 nM final concentration. Template was obtained commercially (Amersham 27-4110). Biotinylated primer was prepared by Sigma Genosys. 3H-UTP was used at 0.6 μCi (0.29 μM total UTP). Reactions were initiated by the addition of enzyme, incubated at 30° C. for 60 min, and stopped by adding 25 μl of 50 mM EDTA containing SPA beads (4 μg/μl, Amersham RPNQ 0007). Plates were read on a Packard Top Count NXT after >1 hr incubation at room temperature.
Modified HCV NS5B RdRp Enzyme Assay.
A modified enzyme assay was performed essentially as described for the standard enzyme assay except for the following: The biotinylated oligo dT12 primer was precaptured on streptavidin-coated SPA beads by mixing primer and beads in assay buffer and incubating at room temperature for one hour. Unbound primer was removed after centrifugation. The primer-bound beads were resuspended in 20 mM Hepes buffer, pH 7.5 and used in the assay at final concentrations of 20 nM primer and 0.67 μg/μl beads. Order of addition in the assay: enzyme (1.75 nM) was added to diluted compound followed by the addition of a mixture of template (0.36 nM), 3H-UTP (0.6 μCi, 0.29 μM), and primer-bound beads, to initiate the reaction; concentrations given are final. Reactions were allowed to proceed for 4 hours at 30° C.
IC50 values for compounds were determined using seven different [I].

[2] = tested on: HCV replicon cells; assay: HCV replicon FRET / luciferase assay; type: cell-based, Hepatitis C virus
Protocol: The HCV FRET screening assay was performed in 96-well cell culture plates. The FRET peptide (Anaspec, Inc.) (Taliani et al., Anal. Biochem. 1996, 240, 60-67) contains a fluorescence donor, EDANS, near one end of the peptide and an acceptor, DABCYL, near the other end. The fluorescence of the peptide is quenched by […] resonance energy transfer (RET) between the donor and the acceptor, but as the NS3 protease cleaves the peptide the products are released from RET quenching and the fluorescence of the donor becomes apparent. The assay reagent was made as follows: 5× cell Luciferase cell culture lysis reagent from Promega (#E153A) diluted to 1× with dH2O, NaCl added to 150 mM final, the FRET peptide diluted to 20 μM final from a 2 mM stock.
To prepare plates, HCV replicon cells, with or without a Renilla luciferase reporter gene, were trypsinized and plated in a 96-well plate with titrated test compounds added in columns 3 through 12; columns 1 and 2 contained a control compound (HCV control inhibitor), and the bottom row contained cells with DMSO only. The plates were then placed in a CO2 incubator at 37° C.
Subsequent to addition of the test compounds described above (FRET Assay Preparation), at various times the plate was removed and Alamar blue solution (Trek Diagnostics, #00-100) was added to measure cellular toxicity. After reading in a Cytoflour 4000 instrument (PE Biosystems), plates were rinsed with PBS and then used for FRET assay by the addition of 30 ul of the FRET peptide assay reagent described above (FRET Assay Preparation) per well. The plate was then placed into the Cytoflour 4000 instrument which had been set to 340 excite/490 emission, automatic mode for up to 20 cycles and the plate read in a kinetic mode. Typically, the signal to noise using an endpoint analysis after the reads was at least three-fold. Alternatively, after Alamar blue reading, plates were rinsed with PBS, then used for luciferase assay using the Promega Dual-Glo Luciferase Assay System or the Promega EnduRen Live Cell Substrate assay.
Compound analysis was performed by quantification of the relative HCV replicon inhibition and the relative cytotoxicity values. To calculate cytoxicity values, the average Alamar Blue fluorescence signals from the control wells were set as 100% non-toxic. The individual signals in each of the compound test wells were then divided by the average control signal and multiplied by 100% to determine […]. To calculate the HCV replicon inhibition values, an average background value was obtained from the two wells containing the highest amount of HCV control inhibitor at the end of the assay period. These numbers were similar to those obtained from naïve Huh-7 cells. The background numbers were then subtracted from the average signal obtained from the control wells and this number was used as 100% activity. The individual signals in each of the compound test wells were then divided by the averaged control values after background subtraction and multiplied by 100% to determine percent activity. […] The two numbers generated for the compound plate, percent cytoxicity and percent activity, were used to determine compounds of interest for further analysis.

[3] = HCV NS5B RdRp genotype 1b enzyme
[4] = HCV replicon cells, FRET or luciferase activity

T1 sequence (Q9WMX2 2420-2992): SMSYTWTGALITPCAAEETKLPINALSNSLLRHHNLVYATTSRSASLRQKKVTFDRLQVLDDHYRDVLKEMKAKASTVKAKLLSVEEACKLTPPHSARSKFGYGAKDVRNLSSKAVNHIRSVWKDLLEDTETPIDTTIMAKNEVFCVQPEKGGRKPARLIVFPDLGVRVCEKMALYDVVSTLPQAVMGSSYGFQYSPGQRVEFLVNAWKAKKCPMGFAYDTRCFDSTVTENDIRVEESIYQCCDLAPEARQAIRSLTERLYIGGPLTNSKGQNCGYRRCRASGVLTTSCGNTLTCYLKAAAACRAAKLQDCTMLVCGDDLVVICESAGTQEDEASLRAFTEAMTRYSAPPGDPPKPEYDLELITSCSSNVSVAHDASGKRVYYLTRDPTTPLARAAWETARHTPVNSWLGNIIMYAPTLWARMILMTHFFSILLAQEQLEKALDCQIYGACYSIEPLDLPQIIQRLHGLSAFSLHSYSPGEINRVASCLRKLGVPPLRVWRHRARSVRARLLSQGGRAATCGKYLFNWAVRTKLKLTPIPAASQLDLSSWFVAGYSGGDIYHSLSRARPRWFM

SMILES	IC50 [1, 3]	EC50 [2, 4]	IC50 [1]	EC50 ([2]; Hepatitis C virus)
COc1ccc2c(c1)C1CC1(C(=O)N1C3CCC1CN(C)C3)Cn1c-2c(C2CCCCC2)c2ccc(C(=O)NS(C)(=O)=O)cc21 (stereo not drawn) [drawing 114]	1 to 500 nM	1 to 500 nM	–	–
COc1ccc2c(c1)C1CC1(C(=O)N1C3CCC1CN(C)C3)Cn1c-2c(C2CCCCC2)c2ccc(C(=O)NS(=O)(=O)N3CCC3)cc21 (stereo not drawn) [drawing 51]	1 to 500 nM	1 to 500 nM	–	–
COc1ccc2c(c1)C1CC1(C(=O)N1C3CCC1CN(c1ccccn1)C3)Cn1c-2c(C2CCCCC2)c2ccc(C(=O)NS(=O)(=O)N(C)C)cc21 (stereo not drawn) [drawing 67]	1 to 500 nM	1 to 500 nM	–	–
COc1cccc2c1C1CC1(C(=O)N1C3CCC1CN(C)C3)Cn1c-2c(C2CCCCC2)c2ccc(C(=O)O)cc21 (stereo not drawn)	–	–	1 to 500 nM	1 to 500 nM
COc1ccc2c(c1)C1CC1C(C(=O)N1C3CCC1CN(C)C3)n1c-2c(C2CCCCC2)c2ccc(C(=O)NS(=O)(=O)C3CC3)cc21 (stereo not drawn) [drawing 100]	–	–	1 to 500 nM	1 to 500 nM
COc1ccc2c(c1)C1CC1(C(=O)N1[C@@H]3CC[C@H]1CN(C(=O)N(C)C)C3)Cn1c-2c(C2CCCCC2)c2ccc(C(=O)NS(=O)(=O)N(C)C)cc21 (stereo partly drawn)	–	–	1 to 500 nM	1 to 500 nM
COc1ccc2c(c1)C1CC1(CN1C3CCC1CN(C)C3)Cn1c-2c(C2CCCCC2)c2ccc(C(=O)NS(=O)(=O)N(C)C)cc21 (stereo not drawn)	–	–	1 to 500 nM	1 to 500 nM
COc1ccc2c(c1)C1CC1(C(=O)N1C3CCC1CN(CC1CC1)C3)Cn1c-2c(C2CCCCC2)c2ccc(C(=O)NS(=O)(=O)N(C)C)cc21 (stereo not drawn) [drawing 40]	–	–	1 to 500 nM	1 to 500 nM
CNS(=O)(=O)NC(=O)c1ccc2c(C3CCCCC3)c3n(c2c1)CC1(C(=O)N2C4CCC2CN(C)C4)CC1c1cc(OC)ccc1-3 (stereo not drawn) [drawing 48]	1 to 500 nM	1 to 500 nM	–	–
COc1ccc2c(c1)C1CC1(C(=O)N1C3CCC1CN(C)C3)Cn1c-2c(C2CCCCC2)c2ccc(C(=O)NS(=O)(=O)N(C)C3CC3)cc21 (stereo not drawn) [drawing 112]	1 to 500 nM	1 to 500 nM	–	–
CNS(=O)(=O)NC(=O)c1ccc2c(C3CCCCC3)c3n(c2c1)CC1(C(=O)N2[C@@H]4CC[C@H]2CN(C)C4)CC1c1cc(OC)ccc1-3 (stereo partly drawn) [drawing 55]	–	–	1 to 500 nM	1 to 500 nM
COc1ccc2c(c1)C1CC1(C(=O)N1C3CCC1CN(C)C3)Cn1c-2c(C2CCCCC2)c2ccc(C(=O)NS(=O)(=O)C3CC3)cc21 (stereo not drawn)	–	–	1 to 500 nM	1 to 500 nM
COc1ccc2c(c1)C1CC1(C(=O)N1[C@@H]3CC[C@H]1CN(C(=O)OCc1ccccc1)C3)Cn1c-2c(C2CCCCC2)c2ccc(C(=O)NS(=O)(=O)N(C)C)cc21 (stereo partly drawn)	–	–	1 to 500 nM	1 to 500 nM
CN1CC2CCC(C1)N2C(=O)C12CC1c1cc(OCc3ccccc3)ccc1-c1c(C3CCCCC3)c3ccc(C(=O)NS(=O)(=O)N(C)C)cc3n1C2 (stereo not drawn) [drawing 43]	–	–	1 to 500 nM	1 to 500 nM
COc1ccc2c(c1)C1CC1(C(=O)N1C3CCC1CN(Cc1ccccc1)C3)Cn1c-2c(C2CCCCC2)c2ccc(C(=O)NS(=O)(=O)N(C)C)cc21 (stereo not drawn) [drawing 33]	–	–	1 to 500 nM	1 to 500 nM
COc1ccc2c(c1)C1CC1(C(=O)N1C3CCC1CN(C(C)C)C3)Cn1c-2c(C2CCCCC2)c2ccc(C(=O)NS(=O)(=O)N(C)C)cc21 (stereo not drawn) [drawing 37]	–	–	1 to 500 nM	1 to 500 nM
COc1ccc2c(c1)C1CC1(C(=O)N1[C@@H]3CC[C@H]1CN(Cc1ccccc1)C3)Cn1c-2c(C2CCCCC2)c2ccc(C(=O)NS(=O)(=O)N(C)C)cc21 (stereo partly drawn)	–	–	1 to 500 nM	1 to 500 nM
CN1CC2CCC(C1)N2C(=O)C12CC1c1cc(OCc3ccccc3)ccc1-c1c(C3CCCCC3)c3ccc(C(=O)NS(=O)(=O)N(C)C)cc3n1C2 (stereo not drawn) [drawing 69]	1 to 500 nM	1 to 500 nM	–	–
CCN(CC)S(=O)(=O)NC(=O)c1ccc2c(C3CCCCC3)c3n(c2c1)CC1(C(=O)N2C4CCC2CN(C)C4)CC1c1cc(OC)ccc1-3 (stereo not drawn) [drawing 97]	–	–	1 to 500 nM	1 to 500 nM
COc1ccc2c(c1)C1CC1(C(=O)N1C3CCC1CN(c1ccccn1)C3)Cn1c-2c(C2CCCCC2)c2ccc(C(=O)NS(=O)(=O)N(C)C)cc21 (stereo not drawn) [drawing 41]	–	–	1 to 500 nM	1 to 500 nM
COc1ccc2c(c1)C1CC1(C(=O)N1C3CCC1CN(C)C3)Cn1c-2c(C2CCCCC2)c2ccc(C(=O)NS(=O)(=O)N3CCCC3)cc21 (stereo not drawn)	–	–	1 to 500 nM	1 to 500 nM
CCN1CC2CCC(C1)N2C(=O)C12CC1c1cc(OC)ccc1-c1c(C3CCCCC3)c3ccc(C(=O)NS(=O)(=O)N(C)C)cc3n1C2 (stereo not drawn) [drawing 36]	–	–	1 to 500 nM	1 to 500 nM
CCS(=O)(=O)NC(=O)c1ccc2c(C3CCCCC3)c3n(c2c1)CC1(C(=O)N2C4CCC2CN(C)C4)CC1c1cc(OC)ccc1-3 (stereo not drawn) [drawing 91]	–	–	1 to 500 nM	1 to 500 nM
CCN(C)S(=O)(=O)NC(=O)c1ccc2c(C3CCCCC3)c3n(c2c1)CC1(C(=O)N2C4CCC2CN(C)C4)CC1c1cc(OC)ccc1-3 (stereo not drawn) [drawing 96]	–	–	1 to 500 nM	1 to 500 nM
CN1CC2CCC(C1)N2C(=O)C12CC1c1cc(O)ccc1-c1c(C3CCCCC3)c3ccc(C(=O)NS(=O)(=O)N(C)C)cc3n1C2 (stereo not drawn) [drawing 44]	–	–	1 to 500 nM	1 to 500 nM
CN1CC2CCC(C1)N2C(=O)C12CC1c1cc(O)ccc1-c1c(C3CCCCC3)c3ccc(C(=O)NS(=O)(=O)N(C)C)cc3n1C2 (stereo not drawn) [drawing 70]	1 to 500 nM	1 to 500 nM	–	–
COc1ccc2c(c1)C1CC1(C(=O)N1C3CCC1CN(C)C3)Cn1c-2c(C2CCCCC2)c2ccc(C(=O)NS(C)(=O)=O)cc21 (stereo not drawn) [drawing 102]	1 to 500 nM	1 to 500 nM	–	–
